pKi: −log10 of the molar value.
Target: T1, Neuromedin-K receptor (Homo sapiens, UniProt P29371)
T1 sequence (P29371 whole entry): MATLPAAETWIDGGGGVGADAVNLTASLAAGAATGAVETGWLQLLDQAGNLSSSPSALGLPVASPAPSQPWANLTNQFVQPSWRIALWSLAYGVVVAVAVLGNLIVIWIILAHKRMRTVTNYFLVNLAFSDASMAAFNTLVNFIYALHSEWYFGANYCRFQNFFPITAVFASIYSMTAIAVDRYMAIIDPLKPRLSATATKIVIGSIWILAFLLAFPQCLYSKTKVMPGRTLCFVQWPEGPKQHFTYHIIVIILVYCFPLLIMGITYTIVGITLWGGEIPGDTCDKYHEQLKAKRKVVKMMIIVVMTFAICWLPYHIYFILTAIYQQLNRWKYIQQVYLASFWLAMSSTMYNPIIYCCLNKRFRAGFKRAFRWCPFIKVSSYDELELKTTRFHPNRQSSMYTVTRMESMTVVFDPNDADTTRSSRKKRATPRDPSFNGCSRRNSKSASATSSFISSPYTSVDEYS

Row | SMILES | pKi
1 | CC(C)Oc1cccc(CC(=O)N2CCC[C@](CC[N+]34CCC(c5ccccc5)(CC3)CC4)(c3ccc(Cl)c(Cl)c3)C2)c1 | 5.97
2 | CC(=O)NC1(c2ccccc2)CCN(CCC(CN(C)C(=O)c2ccccc2)c2ccc(Cl)c(Cl)c2)CC1 (configuration not stated) [SR 48968] | 6.43
